Values quoted from earlier work as cited in patent publication US20040197404A1, “Extended release oral dosage form” (priority 2001, published 2004).

Conditions: in vivo

Compound: NC(=O)c1ccc(F)c2c1C[C@@H](N(C1CCC1)C1CCC1)CO2.O.O=C(O)C(O)C(O)C(=O)O [(R)-3-N,N-dicyclobutylamino-8-fluoro-3,4-dihydro-2H-1-benzopyran-5-carboxamide hydrogen (2R,3R)-tartrate monohydrate]
- plasma elimination half-life, t1/2: 1.5 h
